“And” between values parts separate entries of the source, which are not always exact repeats. Identical values can stand only once.
Tests used:
[1] = Plasma levels of βBA and AKBA via os in patients (Gerbeth K et al. 2011); assay type: in vivo, humans
noradrenaline (NA) = assay: Norepinephrine (NA) levels in mice treated with Aβ icv (FIG. 5b); assay type: in vivo; details: PFC and HIPP
Protocol: The Aβ1-42, obtained from Tocris (Bristol, UK), was dissolved in sterile double-distilled pyrogenic-free water, as vehicle, to obtain a final concentration 4 μM [Colaianna M et al. 2010]. Mice were anesthetized with a solution (0.85 in ml/kg, i.p.), containing ketamine (Sigma Aldrich, Milan, Italy, 100 mg/10 ml), xylazine (Sigma Aldrich, Milan, Italy, 100 mg/10 ml) and acepromazine (prequillant, ATI Azienda Terapeutica Veterinaria Srl, 10 mg/10 ml) dissolved in saline solution. […] At the time of dissection, the correct needle track was assessed. […]
All behavioral experiments were conducted at 5 or 30 min after sublingual administrations of βBA or vehicle in mice treated with SHAM or AP. Based on the observed behavioral results, neurochemical and biochemical quantifications were performed 30 min after administration of βCP, FE, and βBA or vehicle in SHAM- or Aβ-treated mice. […]
5-HT, noradrenaline (NA), and KYN levels were measured in the PFC and HIPP of mice by HPLC coupled with an electrochemical detector (Ultimate ECD, Thermo Scientific Dionex, Milan, Italy) as already reported [Francavilla M et al. 2012, Morgese M G et al. 2016]. […] GLU concentrations were determined by HPLC coupled with fluorescence detection (emission length 460 nm; excitation length 340 nm), as previously published [Francavilla M et al. 2012]. […]

[2] = Blood concentration of βBA by oral-sublingual vs oral-gastro-intestinal route (FIG. 1); assay type: in vivo, humans
Protocol: FIG. 1. Blood Concentration of βBA Administered by Oral-Sublingual Route Vs. Oral-Gastro-Intestinal Route. • ? 43 a, 58 kg BW • βBA administered both via os and sublingual: 10 mg=172.4 ng/g. • Maximum blood concentration via sublingual route: 95 ng/ml. • Maximum blood concentration via os: 52 ng/ml. • Δos/plasma: 1.82. • Note • 1. […] The explanation is that βBA is an excellent vasodilator, probably through the release of NO nitric oxide [Wang M et al. 2015], synergistic with the other compounds of the composition or association object of the present invention. • 2. […] Note that with the present experiment, the Δos/plasma ratio of 1.82 was the same as that found by Sterk V et al. 2004 (Table 1).

C[C@H]1[C@H](C)CC[C@]2(C)CC[C@]3(C)C(=CC[C@@H]4[C@@]5(C)CC[C@@H](O)[C@](C)(C(=O)O)[C@@H]5CC[C@]43C)[C@H]12 [βBA, β-boswellic acid]
Δos/plasma [1]: 14.3 | Norepinephrine (NA) levels (noradrenaline (NA)): removes the reduction of NA induced by Aβ treatment and increases its expression in both PFC and HIPP compared with the control group | Maximum blood concentration via sublingual route ([2]; one person, 58 kg BW, 10 mg=172.4 ng/g, sublingual): 95 ng/mL | Maximum blood concentration via os ([2]; one person, 58 kg BW, 10 mg=172.4 ng/g, via os): 52 ng/mL | Δos/plasma ([2]; sublingual administration): 1.81 and 1.82 | reduction in blood concentration with respect to the administered dose ([2]; via os): 67% and 70% | Δos/plasma ([2]; via os administration): 2.97

— US20260115162A1, “COMPOSITION OR ASSOCIATION OF COMPOUNDS PREFERABLY FOR USE IN THE TREATMENT OF NERVOUS DISEASES IN PARTICULAR NEURODEGENERATIVE DISEASES, METHOD FOR THE PREPARATION OF SUCH COMPOSITION OR ASSOCIATION OF COMPOUNDS AND USES THEREOF” (PHARMACEUTICA SAN MARCO S.R.L., priority 2022, published 2026)
